Measurements: PubChem BioAssay AID2305 (GlaxoSmithKline (GSK), 2010)
Values joined by “and” are separate entries in the source; they are usually repeats but may differ in a detail not shown here. Equal entries are not always repeated.

The compounds below were run on P. falciparum 3D7 growth, pLDH absorbance (assay: P. falciparum 3D7 growth inhibition, dose response, strain 3D7 (AID 2305)).

Structure (SMILES) | IC50
CC(=O)Nc1ncc(C(=O)Nc2ccc(-c3cccc(-c4nc5ccc(F)cc5[nH]4)c3)cc2)s1 | 350 nM
COc1ccc(-c2csc(N(CCCN(C)C)C(=O)c3cc4c(C)nn(-c5ccccc5)c4s3)n2)cc1 | 620 nM
CC(Cc1ccc(OCc2ccccc2)c(Cl)c1)NCC(O)c1cccc(C(F)(F)F)c1 (configuration not stated) | 940 nM
CN1CCN(CCNc2c3ccccc3nc3ccc4ccccc4c23)CC1 | 530 nM
CCc1ccc(NC(=O)c2ccc(CN3CCCN(Cc4cccc(Cl)c4)CC3)cc2)cc1 | 1110 nM
CCCCCNc1nc(Nc2ccccc2C)nc2ccccc12 | 740 nM
O=C(/C=C/C=C/c1ccccc1)NC1CCC(CN2CCC(c3c[nH]c4ccccc34)CC2)CC1 (configuration not stated) | 870 nM
Cc1ccc(Nc2nc(-c3ccccn3)cs2)nc1 | 750 nM
CCN1CCN(c2cc(C)c3cc(NC(=O)c4cccc(Cl)c4)ccc3n2)CC1 | 770 nM
Cc1nn(-c2cccc(Cl)c2)c2c1C(C(=O)c1ccc3c(c1)OCO3)CC(=O)N2 (configuration not stated) | 370 nM
O=[N+]([O-])c1cccc(NC(=S)N2CCCN(Cc3ccc(C(F)(F)F)cc3)CC2)c1 | 1200 nM
Cn1nc(-c2ccc(CNC3CCc4ccccc43)cc2)c2cnc(NCCCN3CCCC3)nc21 (configuration not stated) | 1110 nM
CC(C)C[C@@H](/C=N/N1CCNC1=O)NC(=O)[C@H](CC(C)C)NC(=O)c1ccc(OCCN2CCOCC2)cc1 | 190 nM
CC(=O)Nc1ccc(C(=O)Nc2ccc(-c3cccc(-c4nc5c(C)cccc5[nH]4)c3)cc2)cn1 | 260 nM
CC(Cc1ccc(OCCN2CCN(c3cccc(Cl)c3)CC2)cc1)NCC(O)c1cccc(Cl)c1 (configuration not stated) | 1210 nM
COc1ccc(-n2ccnc2)cc1CNC1CCN(CC2Cn3c(=O)ccc4ccc(F)c2c43)CC1 (configuration not stated) | 930 nM
COc1cc(Cc2cnc(N)nc2N)cc(OCCCC(=O)O)c1OC | 1180 nM
CCOc1ccc(C=CC(=O)Nc2ccc3nc(N4CCN(C)CC4)cc(C)c3c2)cc1OC | 400 nM
COc1ccc(/C=C/C(=O)NCCCCCN2CCC(c3c[nH]c4ccccc34)CC2)cc1O | 960 nM
CCC(=C(CC)c1ccc(O)c(CNC2CCCCC2)c1)c1ccc(O)c(CNC2CCCCC2)c1 | 150 nM
CCCC(C)Nc1nc(C)cc(N[C@@H](CC(C)C)C(=O)NCc2cccc(F)c2)n1 (some centres not stated) | 1000 nM
Cc1cc(=O)c(-c2ccc(Oc3cccc(C(F)(F)F)c3)cc2)c(C)[nH]1 | 630 nM and 210 nM
CCCN1CC[C@@H](CCCc2ccnc3ccc(O)cc23)[C@@H](CC)C1 | 890 nM
Fc1ccc2[nH]c3c(NCCN4CCCCC4)ncnc3c2c1 | 830 nM
COc1ccc(COc2cc(NCCCN)nc3ccccc23)cc1 | 1280 nM

Structure (SMILES) | IC50
Cc1cccc(CCNC(=O)c2cc(Br)cc(N3CCN(c4ccncc4)CC3)c2)c1 | 870 nM
O=C(NC1CCCCN(Cc2ccccc2O)C1)c1ccc(Cl)c(Cl)c1 (configuration not stated) | 750 nM
COc1cc(OC)c(NC(=O)Nc2ccnc3ccccc23)cc1Cl | 750 nM
O=C(C=Cc1ccc(Cl)c(Cl)c1)NCCCCCN1CCC(CCNC(=O)c2ccc3c(c2)OCO3)CC1 | 690 nM
c1cc(CN2CCCCC2)cc(-c2cccc(-c3nc4ccccc4[nH]3)c2)c1 | 830 nM
COc1cc(C(=O)Nc2ccc3nc(N4CCN(C)CC4)cc(C)c3c2)cc(OC)c1OC | 290 nM
CC(CN1CCN(C)CC1)C(=O)Nc1ccc(-c2csc(-c3nc4ccccc4[nH]3)c2)cc1 (configuration not stated) | 840 nM
Cc1ccc(N)cc1-c1nc(NC2CC(C)(C)NC(C)(C)C2)nc2c1ccc(=O)n2-c1c(F)cccc1F | 840 nM
CC(=O)Nc1ccc(CN2CCC(NC(=O)c3ccc(-c4cccc(F)c4)s3)CC2)cc1 | 1430 nM
COc1ccc(CCNC(=O)c2cc3c(=O)n4cccc(C)c4nc3n(C)c2=N)cc1 | 760 nM
Cc1c(C(=O)N2CCCC(C(F)(F)F)C2)sc2cccc(F)c12 (configuration not stated) | 600 nM
Cc1cccc2[nH]c(-c3ccc(-c4ccc(CN5CCN(c6ccc(C#N)cn6)CC5)cc4)s3)nc12 | 1130 nM
O=C(Cc1c(-c2ccccc2)[nH]c2ccccc12)NC1CCC(CN2CCC(c3c[nH]c4ccccc34)CC2)CC1 (configuration not stated) | 480 nM
CN(CCN)Cc1cccc(-c2cccc(-c3nc4ccc(C(F)(F)F)cc4[nH]3)c2)c1 | 510 nM
O=C(c1cc(C(F)(F)F)cc(C(F)(F)F)c1)N1CC[C@H](CCN2CCC3(CC2)C(=O)NCN3c2ccccc2)C[C@H]1Cc1ccc(Cl)c(Cl)c1 | 660 nM
COc1ccc(C)cc1NC(=O)CSc1nc2cccnc2n1C1CCCCC1 | 540 nM
O=C(Nc1cccc(C(F)(F)F)c1)Nc1nc2ccc([N+](=O)[O-])cc2s1 | 690 nM
O=C1NC(=S)NC1=CC=Cc1ccc([N+](=O)[O-])o1 | 1070 nM
Oc1cc(-c2nc(-c3ccccc3)[nH]c2-c2ccncc2)ccc1Cl | 810 nM
CCN(CC)CCN(Cc1ccc(-c2ccc(C(F)(F)F)cc2)cc1)C(=O)Cn1c(CCc2cccc(F)c2F)nc(=O)c2cc(F)ccc21 | 830 nM
CCOC(=O)CN(c1ccc(Br)cc1OCCOc1cc(Br)ccc1N(CC(=O)OCC)C(C)C(=O)OCC)C(C)C(=O)OCC (configuration not stated) | 810 nM
CCc1cc(COc2ccc(CNCCC(C)C)cc2I)c(OCc2ccccc2)c(COc2ccc(CNCCC(C)C)cc2I)c1 | 1110 nM
CC(Oc1c(C2CCN(CCCCNC(=O)c3ccc(-c4ccc(Cl)cc4)cc3)CC2)ccc2c1CCCC2)C(N)=O (configuration not stated) | 950 nM
CCn1c(-c2nonc2N)nc2c(-c3cccc(NC(=O)Nc4ccccc4OC)c3)ncc(OCCCN)c21 | 1000 nM
O=c1n(CC2CCCCC2)c2cc(Cl)cc(OCCNc3ccncc3)c2n1CC1CCCCC1 | 590 nM

Structure (SMILES) | IC50
CN(C)C(=O)CCCn1c(CNCCCNc2cc(=O)c3ccccc3[nH]2)cc2c(Cl)cc(Cl)cc21 | 1190 nM
C=C[C@@H]1CN2CC[C@H]1C[C@H]2[C@H](O)c1cc(-c2ccc(Cl)cc2)nc2ccc(OC)cc12 | 30 nM
Cc1nc2nc(N)nc(N)c2c(C)c1Cc1ccc(O)cc1 | 240 nM
Fc1ccc2nccc(NN=Cc3ccccc3Cl)c2c1 | 920 nM
CC(C)COc1ccc(Cl)cc1Cc1nc(-c2nc3nc(N4CCN(C)CC4)ccc3[nH]2)cs1 | 750 nM
COc1ccc(CCn2c(C3CCCCC3)nc3oc4ccccc4c(=O)c3c2=O)cc1 | 950 nM
COc1ccc(CCON2C(N)=NC(N)=NC2(C)C)cc1OC | 10 nM
c1cc(CNCCN2CCNCC2)cc(-c2ccc(-c3nc4ccccc4[nH]3)cc2)c1 | 1080 nM
Cc1cc(NN=Cc2ccccn2)c2cc(F)ccc2n1 | 760 nM
COCC(=O)N(Cc1ccccc1-c1cccc(CNCc2ccc3c(c2)OCO3)c1)C1CCN(Cc2ccccc2)CC1 | 840 nM
Fc1ccc2nc(-c3ccc(-c4ccc(CNCCN5CCNCC5)cc4)cc3)[nH]c2c1 | 850 nM
Cn1cncc1CCCN(Cc1ccc(-c2ccc(C(F)(F)F)cc2)cc1)C(=O)Cn1c(CCc2cccc(F)c2F)cc(=O)c2cccnc21 | 1250 nM
CC(CN1CCN(C)CC1)C(=O)Nc1ccc(-c2ccc(-c3nc4ccccc4[nH]3)s2)cc1 (configuration not stated) | 640 nM
O=C1C(c2ccccc2)=C(Nc2cccc([N+](=O)[O-])c2)c2ccccc21 | 890 nM
Cn1c(=N)cc(-c2cccc(I)c2)c2c(=O)[nH]c(N)nc21 | 270 nM
C=C[C@H]1CN2CC[C@H]1C[C@H]2[C@H](O)c1cc(/C=C/c2ccc(F)cc2)nc2ccc(OC)cc12 | 30 nM
Fc1ccc2nc(-c3ccc(-c4ccc(CNCC5CCCO5)cc4)s3)[nH]c2c1 (configuration not stated) | 600 nM
CN1CCC(c2nc(N)no2)C1 (configuration not stated) | 980 nM
C=CCOC(=O)N1CCC(CNCc2ccc(-c3cccc(-c4nc5ccccc5[nH]4)c3)cc2)C1 (configuration not stated) | 250 nM
c1ccc(CN2CCC(NCc3ccc(-c4cccc(CNC5CCCC5)c4)cc3)CC2)cc1 | 340 nM
FC(F)(F)c1ccc2nc(-c3ccc(-c4cccc(CN5CCN(c6ccncc6)CC5)c4)cc3)[nH]c2c1 | 120 nM
CC(C)NCc1ccc(-c2cccc(CN3CCC(c4ccccc4)CC3)c2)c(C(=O)NCC2CCCCC2)c1 | 850 nM
COc1ccc(CNCc2cccc(-c3ccc(-c4nc5c(C)cccc5[nH]4)cc3)c2)cc1 | 240 nM
COc1cc2nccc(Nc3ccc(Oc4ccccc4)cc3)c2cc1OC | 680 nM
Cc1ccc(F)c(OCC2CCCN(c3ccc(C(=O)NC4CC4)cn3)C2)c1 (configuration not stated) | 770 nM

Structure (SMILES) | IC50
CCNc1cc(C(=O)N[C@@H](Cc2ccccc2)[C@H](O)CNC(C)(C)c2cccc(OC)c2)cc(N2CCCC2=O)c1 | 140 nM
CCOc1ccc(C(C)NC(=O)c2cc(Cl)ccc2OC)cc1OCC (configuration not stated) | 970 nM
FC(F)(F)c1ccc2nc(-c3ccc(-c4cccc(CNCc5ccccc5)c4)s3)[nH]c2c1 | 150 nM
N#Cc1cccc(Nc2nccc(NCC(O)c3cccc(C(F)(F)F)c3)n2)c1 (configuration not stated) | 550 nM
COc1cc2nc(NCc3cccc(CNC(=O)c4ccc(-c5ccc(C(C)=O)cc5)cc4)c3)nc(N)c2cc1OC | 120 nM
Cc1nc2nc(N)nc(N)c2c(C)c1Cc1cccc(C#N)c1 | 920 nM
COc1ccc(S(=O)(=O)NC2CCN(CCCOc3ccnc4cc(Cl)ccc34)C2)cc1OC (configuration not stated) | 1050 nM
Cc1cccc2[nH]c(-c3ccc(-c4cccc(CN5CCCCC5)c4)s3)nc12 | 470 nM
Cc1cc(N[C@@H](Cc2ccccc2)C(=O)NCCCOC(C)C)nc(NCC2CCCCC2)n1 | 880 nM
Cc1cc(NN=Cc2ccc(F)cc2)c2ccc(F)cc2n1 | 950 nM
CN(C)CCCNCc1cn(S(=O)(=O)c2ccccc2Cl)c2ccccc12 | 1070 nM
O=C(Nc1cc(Cl)cc(Cl)c1)Nc1ccccc1C(=O)NC1CCCCC1 | 750 nM
CC(CNC(=O)C(c1cc2ccccc2o1)N1CCN(C(c2ccccc2)c2ccccc2)CC1)c1ccccc1 (configuration not stated) | 630 nM
CCCCc1cc(N2CCC(NC(C)=O)C2)nc(Nc2ccc(C)cc2)n1 (configuration not stated) | 870 nM
O=C(Nc1ccc(-c2cccc(-c3nc4ccc(C(F)(F)F)cc4[nH]3)c2)cc1)c1csnn1 | 800 nM
CCOc1cc(OCC)c2ccccc2c1CNCCCCCCNCc1c(OCC)cc(OCC)c2ccccc12 | 310 nM
Cc1ccccc1Cn1c(CN2CCC(C(=O)NC3CC3)CC2)cc2ccccc21 | 480 nM
Cc1cc(NN=Cc2ccccc2)c2cc(C(F)(F)F)ccc2n1 | 150 nM
O=C(COc1cnc2ccccc2n1)Nc1ccccc1Sc1ccc(Cl)cc1 | 730 nM
CCOc1cc(C)ccc1N1CCN(CCN2CCC(NC(=O)c3ccc(-c4ccc(C#N)cc4)cc3)CC2)CC1 | 1430 nM
CCc1cn2c3c(cc(C(=O)N[C@@H](Cc4cc(F)cc(F)c4)[C@H](O)CNC4CCCCC4)cc13)N(C)S(=O)(=O)CC2 | 30 nM
CC(=O)Oc1cc(C)ccc1C1CCN(CCCCNC(=O)c2ccc(NC(=O)c3ccc(Cl)cc3)cc2)CC1 | 720 nM
